{
  "source": "paper PMC4061985",
  "about": "(Journal of immunology (Baltimore, Md. : 1950), 2009)",
  "key": {"HLA-DR0901 protein": {"target": "HLA-DR0901 protein (Homo sapiens, UniProt P01903+P01911, A100R/A103E/D57H/D86V/F55Y/F60I/F76Y/I96F/K127E/L162R/M171V/P40D/Q125H/Q99R/R33Q/R42F/S133A/S66N/T210M/V115G/W38K/Y107V/Y59G/Y89S)", "experiment": "Peptide binding competition assay, DR0901"}, "[1]": {"target": "HLA-DRA1/B1*0901, soluble recombinant protein (human)"}},
  "note": "Residues, ends and D or L forms follow the SMILES beside them.",
  "data": [
    {"compound": "CC[C@H](C)[C@H](NC(=O)[C@H](CCCCN)NC(=O)[C@H](CC(C)C)NC(=O)[C@H](CC(C)C)NC(=O)[C@H](CO)NC(=O)[C@H](Cc1ccc(O)cc1)NC(=O)[C@H](CC(N)=O)NC(=O)[C@H](Cc1ccccc1)NC(=O)[C@H](CC(N)=O)NC(=O)[C@@H](N)CC(C)C)C(=O)N[C@H](C(=O)N[C@H](C(=O)N[C@@H](CC(=O)O)C(=O)O)C(C)C)[C@@H](C)CC", "note": "[LNFNYSLLKIIVD] (H-LNFNYSLLKIIVD-OH)", "values": [
      {"measurement": "Kd", "setting": "HLA-DR0901 protein", "value": "67 ± 8", "unit": "nM"}
    ]},
    {"compound": "CC[C@H](C)[C@H](NC(=O)[C@H](CCCCN)NC(=O)[C@H](CCSC)NC(=O)[C@H](CC(C)C)NC(=O)[C@H](CO)NC(=O)[C@H](Cc1ccc(O)cc1)NC(=O)[C@H](CC(N)=O)NC(=O)[C@H](Cc1ccccc1)NC(=O)[C@H](CC(N)=O)NC(=O)[C@@H](N)CC(C)C)C(=O)N[C@H](C(=O)N[C@H](C(=O)N[C@@H](CC(=O)O)C(=O)O)C(C)C)[C@@H](C)CC", "note": "[LNFNYSLMKIIVD] (H-LNFNYSLMKIIVD-OH)", "values": [
      {"measurement": "Kd", "setting": "HLA-DR0901 protein", "value": "46 ± 2", "unit": "nM"}
    ]},
    {"compound": "CC[C@H](C)[C@H](NC(=O)[C@H](CCCCN)NC(=O)[C@H](CC(N)=O)NC(=O)[C@H](CC(C)C)NC(=O)[C@H](CO)NC(=O)[C@H](Cc1ccc(O)cc1)NC(=O)[C@H](CC(N)=O)NC(=O)[C@H](Cc1ccccc1)NC(=O)[C@H](CC(N)=O)NC(=O)[C@@H](N)CC(C)C)C(=O)N[C@H](C(=O)N[C@H](C(=O)N[C@@H](CC(=O)O)C(=O)O)C(C)C)[C@@H](C)CC", "note": "[LNFNYSLNKIIVD] (H-LNFNYSLNKIIVD-OH)", "values": [
      {"measurement": "Kd", "setting": "HLA-DR0901 protein", "value": "93 ± 19", "unit": "nM"}
    ]},
    {"compound": "CC[C@H](C)[C@H](NC(=O)[C@H](CCCCN)NC(=O)[C@@H]1CCCN1C(=O)[C@H](CC(C)C)NC(=O)[C@H](CO)NC(=O)[C@H](Cc1ccc(O)cc1)NC(=O)[C@H](CC(N)=O)NC(=O)[C@H](Cc1ccccc1)NC(=O)[C@H](CC(N)=O)NC(=O)[C@@H](N)CC(C)C)C(=O)N[C@H](C(=O)N[C@H](C(=O)N[C@@H](CC(=O)O)C(=O)O)C(C)C)[C@@H](C)CC", "note": "[LNFNYSLPKIIVD] (H-LNFNYSLPKIIVD-OH)", "values": [
      {"measurement": "Kd", "setting": "HLA-DR0901 protein", "value": "31 ± 2", "unit": "nM"}
    ]},
    {"compound": "CC[C@H](C)[C@H](NC(=O)[C@H](CCCCN)NC(=O)[C@H](CCCNC(=N)N)NC(=O)[C@H](CC(C)C)NC(=O)[C@H](CO)NC(=O)[C@H](Cc1ccc(O)cc1)NC(=O)[C@H](CC(N)=O)NC(=O)[C@H](Cc1ccccc1)NC(=O)[C@H](CC(N)=O)NC(=O)[C@@H](N)CC(C)C)C(=O)N[C@H](C(=O)N[C@H](C(=O)N[C@@H](CC(=O)O)C(=O)O)C(C)C)[C@@H](C)CC", "note": "[LNFNYSLRKIIVD] (H-LNFNYSLRKIIVD-OH)", "values": [
      {"measurement": "Kd", "setting": "HLA-DR0901 protein", "value": "130 ± 19", "unit": "nM"}
    ]},
    {"compound": "CC[C@H](C)[C@H](NC(=O)[C@H](CCCCN)NC(=O)[C@H](CO)NC(=O)[C@H](CC(C)C)NC(=O)[C@H](CO)NC(=O)[C@H](Cc1ccc(O)cc1)NC(=O)[C@H](CC(N)=O)NC(=O)[C@H](Cc1ccccc1)NC(=O)[C@H](CC(N)=O)NC(=O)[C@@H](N)CC(C)C)C(=O)N[C@H](C(=O)N[C@H](C(=O)N[C@@H](CC(=O)O)C(=O)O)C(C)C)[C@@H](C)CC", "note": "[LNFNYSLSKIIVD] (H-LNFNYSLSKIIVD-OH)", "values": [
      {"measurement": "Kd", "setting": "HLA-DR0901 protein", "value": "31 ± 3", "unit": "nM"}
    ]},
    {"compound": "CC[C@H](C)[C@H](NC(=O)[C@H](CCCCN)NC(=O)[C@H](CC(=O)O)NC(=O)[C@H](CC(C)C)NC(=O)[C@H](Cc1ccc(O)cc1)NC(=O)[C@H](Cc1ccc(O)cc1)NC(=O)[C@H](CC(N)=O)NC(=O)[C@H](Cc1ccccc1)NC(=O)[C@H](CC(N)=O)NC(=O)[C@@H](N)CC(C)C)C(=O)N[C@H](C(=O)N[C@H](C(=O)N[C@@H](CC(=O)O)C(=O)O)C(C)C)[C@@H](C)CC", "note": "[LNFNYYLDKIIVD] (H-LNFNYYLDKIIVD-OH)", "values": [
      {"measurement": "Kd", "setting": "HLA-DR0901 protein", "value": 3400, "unit": "nM"}
    ]},
    {"compound": "CC[C@H](C)[C@H](NC(=O)[C@H](CCCCN)NC(=O)[C@H](CC(=O)O)NC(=O)[C@H](CC(C)C)NC(=O)[C@H](CO)NC(=O)[C@H](Cc1ccc(O)cc1)NC(=O)[C@H](CC(N)=O)NC(=O)[C@H](CC(C)C)NC(=O)[C@H](CC(N)=O)NC(=O)[C@@H](N)CC(C)C)C(=O)N[C@H](C(=O)N[C@H](C(=O)N[C@@H](CC(=O)O)C(=O)O)C(C)C)[C@@H](C)CC", "note": "[LNLNYSLDKIIVD] (H-LNLNYSLDKIIVD-OH)", "values": [
      {"measurement": "Kd", "setting": "HLA-DR0901 protein", "value": "450 ± 80", "unit": "nM"}
    ]},
    {"compound": "CC[C@H](C)[C@H](NC(=O)[C@H](CCCCN)NC(=O)[C@H](CC(=O)O)NC(=O)[C@H](CC(C)C)NC(=O)[C@H](CO)NC(=O)[C@H](Cc1ccc(O)cc1)NC(=O)[C@H](CC(N)=O)NC(=O)[C@H](CCSC)NC(=O)[C@H](CC(N)=O)NC(=O)[C@@H](N)CC(C)C)C(=O)N[C@H](C(=O)N[C@H](C(=O)N[C@@H](CC(=O)O)C(=O)O)C(C)C)[C@@H](C)CC", "note": "[LNMNYSLDKIIVD] (H-LNMNYSLDKIIVD-OH)", "values": [
      {"measurement": "Kd", "setting": "HLA-DR0901 protein", "value": "600 ± 150", "unit": "nM"}
    ]},
    {"compound": "CC[C@H](C)[C@H](NC(=O)[C@H](CCCCN)NC(=O)[C@H](CC(=O)O)NC(=O)[C@H](CC(C)C)NC(=O)[C@H](CO)NC(=O)[C@H](Cc1ccc(O)cc1)NC(=O)[C@H](CC(N)=O)NC(=O)[C@@H](NC(=O)[C@H](CC(N)=O)NC(=O)[C@@H](N)CC(C)C)C(C)C)C(=O)N[C@H](C(=O)N[C@H](C(=O)N[C@@H](CC(=O)O)C(=O)O)C(C)C)[C@@H](C)CC", "note": "[LNVNYSLDKIIVD] (H-LNVNYSLDKIIVD-OH)", "values": [
      {"measurement": "Kd", "setting": "HLA-DR0901 protein", "value": "440 ± 130", "unit": "nM"}
    ]},
    {"compound": "CC[C@H](C)[C@H](NC(=O)[C@H](CCCCN)NC(=O)[C@H](CC(=O)O)NC(=O)[C@H](CC(C)C)NC(=O)[C@H](CO)NC(=O)[C@H](Cc1ccc(O)cc1)NC(=O)[C@H](CC(N)=O)NC(=O)[C@H](Cc1ccc(O)cc1)NC(=O)[C@H](CC(N)=O)NC(=O)[C@@H](N)CC(C)C)C(=O)N[C@H](C(=O)N[C@H](C(=O)N[C@@H](CC(=O)O)C(=O)O)C(C)C)[C@@H](C)CC", "note": "[LNYNYSLDKIIVD] (H-LNYNYSLDKIIVD-OH)", "values": [
      {"measurement": "Kd", "setting": "HLA-DR0901 protein", "value": "113 ± 40", "unit": "nM"}
    ]},
    {"compound": "TT 503–515 peptide, unmodified", "values": [
      {"measurement": "Kd", "setting": "[1]", "value": 73, "unit": "nM"}
    ]}
  ]
}
